Entries after “also recorded” stand apart in the source; their conditions may differ. Like-named read-outs stand apart in the source and are kept apart here.
How the values were obtained:
[1] = Phase Ib drug–drug interaction study: safety and tolerability (adverse events); type: in vivo, human
Text: This was a phase Ib, open-label, four-arm, parallel design, multicenter, multiple-dose study in healthy female subjects of non-childbearing potential. Subjects were randomly assigned to 1 of 4 treatment arms in a 1:1:1:1 ratio with stratification according to AAG concentration [low (0.5–0.73 g/L), medium (0.74–0.96 g/L), or high (0.97–1.2 g/L)].

[2] = vismodegib; ANOVA, back-transformed; day 7 (day 11 in Arm B)
[3] = unbound vismodegib; geometric mean (CV %); 2, 6 and 12 h postdose on day 7 (day 11 in Arm B); vismodegib 150 mg QD
Procedure: PK parameters were calculated using noncompartmental methods with WinNonlin (Pharsight Corporation, Mountain View, CA; Version 5.2); the PK analysis used actual times as recorded on the case report form.

[4] = cited from earlier work
Caco-2 cells = conditions: cited from earlier work
human hepatocytes = system: human hepatocytes; set-up: method as in PMID 19845436; conditions: 3-h incubation with human hepatocytes; cited from earlier work
[5] = set-up: method as in PMID 19845436; conditions: cited from earlier work
clinical = conditions: female, human, plasma, po, 150 mg
[6] = cited from earlier work; remark: listed apart in the source
P-glycoprotein (P-gp) = conditions: MDCK cells overexpressing P-gp; cited from earlier work
CYP2C9 and CYP3A4 = conditions: cited from earlier work
[7] = cited from earlier work; remark: listed apart in the source
[8] = number of subjects (percent), safety population

CS(=O)(=O)c1ccc(C(=O)Nc2ccc(Cl)c(-c3ccccn3)c2)c(Cl)c1 [Vismodegib, 2-chloro-N-(4-chloro-3-(pyridin-2-yl)phenyl)-4-(methylsulfonyl) benzamide]
Most frequent AEs related to vismodegib: constipation ([1]; across the study): 10.5%
Most frequent AEs related to vismodegib: diarrhea ([1]; across the study): 8.0%
Most frequent AEs related to vismodegib: headache ([1]; across the study): 10.5%
Most frequent AEs related to vismodegib: nausea ([1]; across the study): 9.3%
Treatment-emergent AE: Abdominal distention [1, 8]: 1 (4.5)
Treatment-emergent AE: Abdominal pain [1, 8]: 1 (4.5)
Treatment-emergent AE: Constipation [1, 8]: 4 (18.2)
Treatment-emergent AE: Diarrhea [1, 8]: 1 (4.5)
Treatment-emergent AE: Dizziness [1, 8]: 2 (9.1)
Treatment-emergent AE: Flatulence [1, 8]: 1 (4.5)
Treatment-emergent AE: Headache [1, 8]: 4 (18.2)
Treatment-emergent AE: Nausea [1, 8]: 2 (9.1)
Treatment-emergent AE: Pruritus [1, 8]: 0
Treatment-emergent AE: Rash [1, 8]: 0
Number of treatment-emergent AEs considered related to vismodegib ([1]; of the 127 treatment-emergent AEs): 92
Geometric LS mean of AUC0–24h at steady state [2]: 402 µmol·h/L
Css,ave,u (average unbound plasma concentration at steady state) [3]: 0.150 (50.2) µmol/L
Decrease in solubility from pH 2 to 7 [4]: 10,000 fold
Permeability (Caco-2 cells): high permeability
Parent remaining (human hepatocytes): 96%
Predicted preclinical efficacious levels (unbound concentration range required for efficacy) [5]: 0.042 to 0.068 µM
AUC(0-t) (clinical): 140 µM·h
Cmax (clinical): 7 µM
Tmax (clinical): 6 h
Absolute bioavailability at steady state [6]: less than 10%
Change in steady-state plasma concentrations with dose ([6]; daily dose increased from 150 to 270 or 540 mg): no increase
Increase in total clearance with multiple dosing ([6]; healthy subjects): 81%
Oral steady-state AUC0–24h after multiple dosing compared with AUC from zero to infinity after a single dose ([6]; healthy subjects): approximately eightfold lower
PK variability explained by AAG levels ([6]; patients): > 70%
PK variability explained by AAG levels ([6]; ref data on file): > 70%
Terminal elimination half-life ([6]; single dose): 12 days
P-gp substrate status (P-glycoprotein (P-gp)): weak substrate of P-gp; also recorded: P-glycoprotein (P-gp) substrate
Metabolizing enzymes (CYP2C9 and CYP3A4): primarily metabolized by CYP2C9 and CYP3A4

COC(=O)N[C@H](C(=O)N[C@@H](Cc1ccccc1)[C@@H](O)CN(Cc1ccc(-c2ccccn2)cc1)NC(=O)[C@@H](NC(=O)OC)C(C)(C)C)C(C)(C)C [atazanavir]
Change in bioavailability on co-administration of the PPI lansoprazole [7]: large reduction

CC(=O)N1CCN(c2ccc(OCC3COC(Cn4ccnc4)(c4ccc(Cl)cc4Cl)O3)cc2)CC1 (centres unmarked) [ketoconazole]
Impairment of absorption by acid-reducing agents [7]: more than 90%

Reference: paper PMC4921109 (Cancer Chemotherapy and Pharmacology, 2016)
